Patent publication US20250213566A1, “PHARMACEUTICAL COMPOSITION FOR PREVENTING OR TREATING SKIN DISEASES CAUSED BY RADIATION IRRADIATION COMPRISING DARAPLADIB OR PHARMACEUTICALLY ACCEPTABLE SALT THEREOF AS ACTIVE INGREDIENT” (KOREA INSTITUTE OF RADIOLOGICAL & MEDICAL SCIENCES, priority 2022, published 2025)

What was measured:
[1] = test system: human fibroblasts; experiment: TGF-β-induced differentiation from fibroblasts to myofibroblasts, immunofluorescence staining of collagen; assay type: cell-based; conditions: TGF-β treated fibroblasts; darapladib 0.25 nM and 0.5 nM applied 1 hour before TGF-β; vs TGF-β treated group; FIG. 1
Description: To identify the effect of darapladib on suppression of differentiation from fibroblasts to myofibroblasts, used was a transforming growth factor-beta (TGF-β), a growth factor that induces differentiation from human fibroblasts to myofibroblasts. Darapladib was applied to the medium at low concentration (0.25 nM) and high concentration (0.5 nM) respectively 1 hour before TGF-β treatment and then fixed with 4% formaldehyde in a live state in a single-layer culture of fibroblasts, and immunofluorescence staining of collagen was performed, followed by visualization by confocal microscopy.

[2] = test system: SKH-1 hairless mice; experiment: Radiation-induced skin damage in SKH-1 hairless mice, appearance of skin; assay type: in vivo; conditions: day 20 after irradiation, FIG. 3
Description: (§1) In order to identify the effect of darapladib in improving radiation-induced skin damage, SKH-1 hairless mice, which has the most similar characteristics to the human skin layer, immune system, and vascular system, was used, and for the irradiated group, local irradiation was performed on the skin in a total of 40 Gy by irradiating two times by 20 Gy at intervals of 5 days. Darapladib was used to suppress radiation-induced skin damage, and subcutaneous injections were given at different concentrations (20 mg/kg and 40 mg/kg).

[3] = test system: SKH-1 hairless mice; experiment: Skin moisture content (Corneometer), moisture loss (Tewameter) and skin pH after irradiation; assay type: in vivo; conditions: 40 Gy local irradiation; day 20 after irradiation; skin pH meter; FIG. 4
Description: as §1, with “mg/kg). In addition, in order to quantitatively observe the effect of darapladib in inhibiting radiation-induced skin damage, the moisture content, moisture loss, and pH level of the skin were measured on day 20 after irradiation. The moisture content in the skin was measured using Corneometer (Corneometer CM825, CK electronic GmbH, Germany), the moisture loss by Tewameter (TM300, CK electronic GmbH, Germany), and the pH level of the skin by a skin pH meter (pH905, CK electronic GmbH, Germany).” for “mg/kg).”

[4] = test system: SKH-1 hairless mice; experiment: Histological changes in irradiated skin, hematoxylin and eosin staining, Image J quantification of adipocytes; assay type: in vivo
Description: In order to identify the effect of darapladib in improving radiation-induced skin damage, SKH-1 hairless mice, which has the most similar characteristics to the human skin layer, immune system, and vascular system, was used, and for the irradiated group, local irradiation was performed on the skin in a total of 40 Gy by irradiating two times by 20 Gy at intervals of 5 days. Darapladib was used to suppress radiation-induced skin damage, and subcutaneous injections were given at different concentrations (20 mg/kg and 40 mg/kg). In addition, in order to observe the histological changes in the skin, the extracted tissues were embedded by undergoing a paraffin infiltration process, a 4 μm thinned section was prepared to undergo deparaffinization and hydration followed by staining with hematoxylin and eosin, and then tissue damage, blood vessel damage, and changes in the epidermis, dermis, and adipocyte layer of skin tissue were observed using an optical microscope. In addition, to quantify the degree of skin damage, the area and number of granules in which adipocytes are present were calculated and statistically analyzed using the Image J program.

[5] = test system: collagen; experiment: Masson's trichrome staining of irradiated skin (collagen deposition); assay type: in vivo, mice; conditions: day 20 after irradiation, IR/Dara group, FIG. 6
Description: as §1

[6] = test system: α-SMA; experiment: α-SMA expression in irradiated skin by IHC staining, immunofluorescence and Western blot; assay type: in vivo, mice; conditions: FIG. 7
Description: as §1

[7] = test system: vimentin; experiment: Vimentin expression in irradiated skin by immunohistochemistry; assay type: in vivo, mice; conditions: FIG. 8
Description: as §1, with “mg/kg). In addition, to identify the effect of darapladib on vimentin, which is another marker of fibrosis and applicable to immune diseases, immunohistochemistry (IHC) method was applied to stain the surface of the skin.” for “mg/kg).”

[8] = irradiated skin sections, H&E, Dara+IR group, FIG. 5A

CCN(CC)CCN(Cc1ccc(-c2ccc(C(F)(F)F)cc2)cc1)C(=O)Cn1c(SCc2ccc(F)cc2)nc(=O)c2c1CCC2 [darapladib]
expression of collagen [1]: decreased significantly | fibrosis (chronic thickening of skin surface, red wounds, inflammation) ([2]; 40 Gy local irradiation (2 x 20 Gy), subcutaneous 20 mg/kg and 40 mg/kg, vs irradiated group): remarkably reduced | recovery of irradiated skin ([2]; 40 Gy local irradiation, subcutaneous 40 mg/kg (high concentration)): recovery similar to that of the control group without irradiation | skin pH [3]: remained slightly acidic | adipocyte granules [4, 8]: retained | thickness of the epidermis and dermis of the skin [4, 8]: restored similar to the control group | area of adipocytes ([4]; irradiated skin, Image J, FIGS. 5B and 5C): significantly recovered | collagen fiber or thickness of the skin layer [5]: restored to a level of the control group | expression of α-SMA ([6]; IR/Dara group vs irradiated group): reduced expression of α-SMA compared to the irradiated group | expression of α-SMA ([6]; high concentration, 40 mg/kg): expression level similar to that of the control group | vimentin expression ([7]; IR/Dara group): decreased | vimentin expression ([7]; high concentration, 40 mg/kg): similarly to the control group
